Tests used:
cancer cells = conditions: cited from earlier work
[1] = Extrapolation of rat rectal plasma levels to humans on a body surface area basis; conditions: extrapolated from rat rectal data
Method: In this study, idronoxil was given to rats at a dose of 10 mg/kg body weight, yielding a plasma concentration of about 35 to 40 ng/mL up to 8 hours from a single rectal administration. This dosage equates (on a body surface area basis) to a dose in humans of about 2 mg/kg BW. Thus, a blood level range of 20-400 ng/mL could be achieved in humans with a dosage range of 1-20 mg/kg BW, and the preferred range of 80-160 ng/mL with a dosage range of 4-8 mg/kg BW.

[2] = cited from earlier work

SMILES: Oc1ccc(C2=Cc3ccc(O)cc3OC2)cc1 [Idronoxil, 2H-1-Benzopyran-7-0,1,3-(4-hydroxyphenyl)]
- concentration where it kills about 10% of the cancer cells (sensitising use) (cancer cells; cancer cells in cell culture): 50 to 300 ng/mL
- concentration that kills 50% of cancer cells in cell culture (IC50) (cancer cells; depending largely on the tumour type): 0.2 to 1.2 µg/mL
- direct cytotoxic or sensitising effect when drug added in a pulsatile manner (cancer cells; left in cancer cell culture for 2-3 hours and then removed): largely ineffective
- blood level range that could be achieved in humans ([1]; dosage range of 1-20 mg/kg BW): 20 to 400 ng/mL
- blood level range that could be achieved in humans ([1]; dosage range of 4-8 mg/kg BW): 80 to 160 ng/mL
- plasma elimination half-life ([2]; bolus IV administration): short
- time after administration at which free idronoxil is detected in plasma ([2]; given orally, most patients): ≤ 30 min
- absolute oral bioavailability ([2]; given orally): low
- blood levels readily attained ([2]; humans treated both orally and intravenously): 50 µM

Source: patent US11559510B2, “Isoflavonoid composition with improved pharmacokinetics” (NOXOPHARM LIMITED, priority 2016, dated 2023)
